Laboratory results published in patent US7781402B2, “Methods and implantable devices for treating supraventricular arrhythmias” (Closed Loop Therapies Ltd., priority 2004, dated 2010).

Columns and labels:
[1] = tested on: recent-onset atrial fibrillation; conditions: phase 3 trial; cited from earlier work
[2] = tested on: stroke; conditions: people with atrial fibrillation; cited from earlier work
[3] = tested on: atrial fibrillation; experiment: Termination of induced atrial fibrillation in anesthetized Wistar rats (ECG); assay type: in vivo
Text: (§1) Induction of atrial tachycardia, atrial fibrillation and atrial flutter in rats—Wistar rats of either sex weighing 450-550 g were used in this study. Rats were anesthetized and atrial tachycardia, atrial fibrillation, or atrial flutter were induced by cardiac stimulation using a programmable stimulator with an isolated constant-current source. Stimuli of rectangular pulses of 2 milliseconds (ms) duration at three times diastolic threshold were delivered via transesophageal bipolar catheter positioned optimally to stimulate the atria. Double and triple extra stimulation techniques or a minimal coupling interval of 10 ms were performed in an attempt to induce atrial arrhythmias. Atrial burst pacing at intervals of 40 to 80 ms was also performed to induce atrial arrhythmias.
(§2) Electrocardiogram (ECG) recording—The surface six-lead ECG was continuously recorded from subcutaneous 25-gauge electrodes in each limb of the animal. The ECG channels were amplified (0.1-0.5 mV/cm) and filtered between 0.5-250 Hz. The ECG variables were calculated according to standard criteria.
Rapidly hydrolysable cholinergic receptor agonists (RHCA)—The RHCA were injected either through the tail vein or directly into the right ventricular cavity of rats with induced atrial fibrillation, atrial flutter or atrial tachycardia. The RHCA used in the present study was acetylcholine (ACh). ACh was dissolved at a concentration of either 1 mg/ml or 0.1 mg/ml in 0.9% NaCl solution and was injected either to the tail vein at a dosage of 0.2 mg/kg body weight, or to the right ventricle at a dosage of 0.02 mg/kg body weight.
Atrial fibrillation was elicited in rats as described in Example 1, hereinabove.

[4] = tested on: arrhythmia induction; conditions: wild type and M1 cholinergic receptor knockout mice; cited from earlier work
[5] = tested on: atrial flutter; experiment: Termination of induced atrial flutter in anesthetized Wistar rats (ECG); assay type: in vivo; conditions: nine rats, 0.02-0.3 mg/kg via tail vein
Text: as §1, §2
(§3) Rapidly hydrolysable cholinergic receptor agonists (RHCA)—The RHCA were injected either through the tail vein or directly into the right ventricular cavity of rats with induced atrial fibrillation, atrial flutter or atrial tachycardia. The RHCA used in the present study was acetylcholine (ACh). […]

[6] = tested on: atrial tachycardia; experiment: Termination of induced atrial tachycardia in anesthetized Wistar rats (ECG); assay type: in vivo
Method: The effect of rapidly hydrolysable cholinergic receptor agonists (RHCA) on supraventricular arrhythmia was tested in anesthetized Wistar rats, as follows.
as §1, §2, §3

[7] = tested on: atrial fibrillation; experiment: Termination of induced atrial fibrillation in anesthetized Wistar rats (ECG); assay type: in vivo; remark: listed apart in the source
[8] = 0.2 mg/kg through the tail vein, FIG. 5
[9] = RHCA into right ventricular cavity, n=10, FIG. 4
[10] = bolus injection 0.04-0.2 mg/kg body weight
[11] = bolus injection into the right ventricular cavity
[12] = bolus injection into the tail vein
[13] = 0.02 mg/kg into right ventricular cavity, FIG. 2b
[14] = 0.2 mg/kg via tail vein, FIG. 2a

**Q.** Which “conversion of recent-onset atrial fibrillation to sinus rhythm” value [1] does the source give for COc1ccc(CCO[C@@H]2CCCC[C@H]2N2CC[C@@H](O)C2)cc1OC [RSD1235] here?
**A.** demonstrated its effectiveness to convert recent-onset atrial fibrillation to sinus rhythm

**Q.** With CC(=O)CC(c1ccccc1)c1c(O)c2ccccc2oc1=O (stereo not shown) [Coumadin, warfarin] as the molecule, how does the “reduction of the risk of stroke” value [2] read?
**A.** 60-80%

**Q.** Which results are given for CC(=O)OCC[N+](C)(C)C [acetylcholine]?
**A.** additional time until SA and AV nodes / AV conduction recovered [3, 8]: 1.5 s; time to termination of atrial fibrillation [3, 8]: ≤ 9.8 s; atrial fibrillation cases terminated [3, 9]: 100%; time within which atrial fibrillation cases are terminated [3, 9]: ≤ 8.4 ± 1.9 s; time to termination of atrial fibrillation [3, 10]: 0.5 to 15 s; additional time to restore normal rhythm [3, 11]: 1 to 5 s; time to termination of atrial fibrillation [3, 11]: 0.5 to 10.5 s; additional time to restore normal rhythm [3, 12]: 1 to 5 s; time to termination of atrial fibrillation [3, 12]: 2 to 15 s; effect of intravenous injection on heart rhythm [4]: caused atrioventricular conduction block and induced atrial fibrillation or flutter; time to conversion to sinus rhythm [5]: 2 to 5 s; time of complete AV node conduction recovery following RHCA administration ([6]; 0.02 mg/kg into right ventricular cavity): about 6 seconds; period of cardiac arrest after termination [6, 13]: 1.25 s; time until AV conduction completely recovered [6, 13]: about 4.5 sec; time to termination of atrial tachycardia ([6]; 0.02 mg/kg into right ventricular cavity, example rat (FIG. 2b)): 0.5 s; duration of high degree AV block ([6]; 0.02 mg/kg into right ventricular cavity, following acetylcholine hydrolysis): 2.5 s; lag to termination of atrial tachycardia ([6]; 0.2 mg/kg body weight via tail vein, representative rat (FIG. 2a)): 2.6 s; time for sinus rhythm to reach its pre-arrhythmic value ([6]; 0.2 mg/kg via tail vein): about 1 minute; P-P interval immediately following RHCA administration [6, 14]: 650 ± 3 ms; R-R interval immediately following RHCA administration [6, 14]: 652 ± 3 ms; time to termination of atrial tachycardia ([6]; 0.02 or 0.2 mg/kg via right ventricular cavity or tail vein, respectively): 0.5 to 15 s; additional time to restore normal rhythm [6, 11]: 1 to 5 s; time to termination of atrial tachycardia [6, 11]: 0.5 to 10.5 s; additional time to restore normal rhythm [6, 12]: 1 to 5 s; time to termination of atrial tachycardia [6, 12]: 2 to 15 s; time until cardiac arrest, escape rhythm, AV block and sinus bradycardia all disappear ([6]; injection into right ventricular cavity): ≤ 15 s; time to conversion to sinus rhythm ([6]; ten rats, 0.02-0.2 mg/kg via tail vein): 2 to 5 s; time until transient sinus bradycardia (and AV block) disappeared ([7]; 0.04 mg/kg into right ventricular cavity): ≤ 20 s; additional time to restore normal rhythm [7, 10]: 1 to 5 s
